Assay results taken from patent US10201565B2, “Gas conditioning” (EndoSAT NV, priority 2010, dated 2019).
Values after ≈ are worked out from the molar mass of the structure shown. Values joined by “and” are separate entries in the source; they are usually repeats but may differ in a detail not shown here. Equal entries are not always repeated.

Assays:
adhesion formation [1] = experiment: open abdomen for 60 min with gas flow deep in the pelvis, adhesions; format: in vivo; conditions: gas flow of 1 l/min deep in the pelvis; control group with a lesion only
adhesion formation [2] = conditions: 60 min pneumoperitoneum, 15 mmHg, humidified, 37° C.; scored one week later; average of four sites; listed as pure CO2
adhesion formation [3] = conditions: laparoscopic mouse model, background; cited from earlier work
[4] = cited from earlier work; for solubilities: unit inferred
human patients = experiment: clinical trials of laparoscopy with conditioned pneumoperitoneum; format: in vivo; conditions: first trial, deep endometriosis surgery; trial group also 5 mg dexamethasone and hyalobarrier gel, humidification, cooling 30-32° C.
Protocol: In a further set of trials, human patients were treated operatively by laparoscopy using a pneumoperitoneum with 86% CO2, 10% of N2O and 4% of O2 in combination with full humidification and with a temperature maintained at 31° C. to 32° C. when entering the patient (conditioned group). Furthermore the peritoneal cavity was cooled to 30-32° C. using sprinkling of 2 ml/min of saline at room temperature and rinsing was performed using slightly heparinised saline. A comparison was made with a standard treatment, whereby a pneumoperitoneum with 100% CO2 was used (non-conditioned group). Flow rates were between 3 and 10 liter/min. In a first trial, patients were undergoing deep endometriosis surgery. The trial group received in addition 5 mg of dexamethasone and a hyalobarrier gel at the end of the procedure. […] A number of parameters were monitored such as postoperative pain, time to first flatus and time to first stools, and the CO2 resorbtion during pneumoperitoneum. […] In both trials CO2 resorbtion during surgery, postoperative pain assessed by VAS scales and pain killer intake and time to first flatus and time to first stools were monitored.
In both trials post operative pain was evaluated at 3 hours, 12 hours and daily for 4 days after surgery using a VAS scale (Visual Analog Pain Scale) and using the amount of pain killer intake. […]

| SMILES | adhesions after 60 min open abdomen (adhesion formation [1]) | quantitative adhesion score (proportion of lesion covered by adhesions) (adhesion formation [2]) | total adhesion score (sum of extent, type, tenacity) (adhesion formation [2]) | adhesion formation (adhesion formation [3]) | solubility in water [4] | solubilities [4] | adhesion formation checked by repeat laparoscopy (human patients) |
| --- | --- | --- | --- | --- | --- | --- | --- |
| O=C=O [CO2, carbon dioxide] | decrease of these adhesions | 70±10% and 74±9% and 77±9% | 30±4 and 31±4 and 32±4 | increase adhesions five fold | 1.45 g/L (≈ 32.9 mM) | 1.45 g/L | severe adhesions |
| [N-]=[N+]=O [N2O, nitrous oxide] | – | – | – | – | 1.5 g/L (≈ 34.1 mM) | 1.5 g/L | – |
| O=O [Oxygen, oxygen] | – | – | – | – | 0.0391 g/L (≈ 1.22 mM) | 0.0232 g/L | – |
